Reference: patent US8772244B2, “Tubulin inhibitors” (R&D Biopharmaceuticals GmbH, priority 2009, dated 2014)

Assays:
Assay type in all cases: cell-based
HCT-116 = experiment: BrdU-Assay, IC-50 against cancer cell line HCT-116; settings: Homo sapiens; HCT-116, BrdU-Assay
Text: (§1) Determination of the IC-50 Concentration Against Various Cancer Cell Lines
(§2) The activity of some representative example compounds of the present invention has been determined with the BrdU-Assay as described in: Porstmann T., Ternynck T., Avrameas S. (1985) “Quantification of 5-bromo-2-deoxyuridine incorporation into DNA: an enzyme immunoassay for the assessment of the lymphoid cell proliferative response.” J. Immunol. Methods 82: 169-179.

Skov-3 = experiment: BrdU-Assay, IC-50 against cancer cell line Skov-3; settings: Homo sapiens, SK-OV-3; Skov-3, BrdU-Assay
Text: as §1, §2

MCF-7 = experiment: BrdU-Assay, IC-50 against cancer cell line MCF-7; settings: Homo sapiens, MCF7; MCF-7, BrdU-Assay
Text: as §1, §2

MCF-7 MX100 = experiment: BrdU-Assay, IC-50 against cancer cell line MCF-7 MX100; settings: MCF7/MX100; MCF-7 MX100, BrdU-Assay
Text: as §1, §2

MCF-7 TX200 = experiment: BrdU-Assay, IC-50 against cancer cell line MCF-7 TX200; settings: Homo sapiens; MCF-7 TX200, BrdU-Assay
Text: as §1, §2

MCF-7 VP = experiment: BrdU-Assay, IC-50 against cancer cell line MCF-7 VP; settings: Homo sapiens, MCF7-VP
Text: as §1, §2

| Structure (SMILES) | IC50 (HCT-116) | IC50 (Skov-3) | IC50 (MCF-7) | IC50 (MCF-7 MX100) | IC50 (MCF-7 TX200) | IC50 (MCF-7 VP) |
| --- | --- | --- | --- | --- | --- | --- |
| CCCN(C(=O)C(NC(=O)C1CCCCN1C)[C@@H](C)CC)[C@H](C[C@@H](OC(C)=O)c1nc(C(=O)N[C@@H](Cc2ccccc2)C[C@H](C)CO)cs1)C(C)C (stereo partly drawn) [MSRD334] | 1.06 nM | 1.05 nM | 0.57 nM | 0.62 nM | 15.6 nM | 0.88 nM |
| CC[C@H](C)C(NC(=O)C1CCCCN1C)C(=O)N(C)[C@H](C[C@@H](OC(C)=O)c1nc(C(=O)N[C@@H](Cc2ccccc2)C[C@H](C)CO)cs1)C(C)C (stereo partly drawn) [MSRD345] | 1.35 nM | 1.18 nM | 0.4 nM | 0.28 nM | 50.6 nM | 1.2 nM |
| CCCN(C(=O)C(NC(=O)C1CCCCN1C)[C@@H](C)CC)[C@H](C[C@@H](OCOC)c1nc(C(=O)N[C@@H](Cc2ccccc2)C[C@H](C)CO)cs1)C(C)C (stereo partly drawn) [MSRD368] | 41.1 nM | 29.9 nM | 3.91 nM | 4.01 nM | 322 nM | 6.38 nM |
| CCCN(C(=O)C(NC(=O)C1CCCCN1C)[C@@H](C)CC)[C@H](C[C@@H](OC(C)=O)c1nc(C(=O)N[C@H](CO)Cc2ccccc2)cs1)C(C)C (stereo partly drawn) [MSRD390] | 1.1 nM | 1.06 nM | 0.27 nM | 0.2 nM | 24.4 nM | 0.54 nM |
| CC[C@H](C)C(NC(=O)C1CCCCN1C)C(=O)N[C@H](C[C@@H](OC(C)=O)c1nc(C(=O)N[C@@H](Cc2ccccc2)C[C@H](C)CO)cs1)C(C)C (stereo partly drawn) [SDRD28] | 4.31 nM | 3.35 nM | 0.55 nM | 1.41 nM | 370 nM | 3.04 nM |
